The NIST ThermoML archive (doi:10.1016/j.jct.2018.02.013)

What was measured:
[1] = 101.33 kPa, Liquid; for thermal conductivity: transient hot wire; for mass density: Vibrating tube method; for viscosity: Cone and plate viscometry; for electrical conductivity: Direct current cell with electrodes
[2] = molar heat capacity at constant pressure; conditions: 101.33 kPa, Liquid, Small sample (50 mg) DSC

CCCCCCCC(=O)[O-].CCCCCCCCCCCCCC[P+](CCCCCC)(CCCCCC)CCCCCC [trihexyl(tetradecyl)phosphonium octanoate]
Conditions	electrical conductivity [S/m]	mass density [kg/m3]	molar heat capacity at constant pressure [J/K/mol]	thermal conductivity [W/m/K]	viscosity [mPa·s]
[1], 278.28 K	–	–	–	0.1611	–
[1], 288.24 K	–	–	–	0.1601	–
[1], 293.15 K	–	884.5	–	–	–
[1], 293.2 K	–	–	–	–	513.6
[1], 297.87 K	–	–	–	0.1581	–
[1], 298.15 K	–	881.4	–	–	–
[1], 298.2 K	–	–	–	–	400.2
[1], 300.6 K	0.00251	–	–	–	–
[1], 303.15 K	–	878.4	–	–	–
[1], 303.2 K	–	–	–	–	301.2
[1], 303.6 K	0.00345	–	–	–	–
[1], 307.71 K	–	–	–	0.1567	–
[1], 308 K	0.00428	–	–	–	–
[1], 308.2 K	–	–	–	–	230.8
[1], 313.15 K	–	872.1	–	–	–
[1], 313.2 K	–	–	–	–	179.3
[1], 313.4 K	0.0057	–	–	–	–
[1], 317.92 K	–	–	–	0.1561	–
[1], 318.2 K	–	–	–	–	141.2
[1], 319 K	0.0073	–	–	–	–
[1], 323.15 K	–	865.9	–	–	–
[1], 323.2 K	–	–	–	–	113
[1], 323.8 K	0.0091	–	–	–	–
[1], 328.17 K	–	–	–	0.1547	–
[1], 328.2 K	–	–	–	–	91.42
[1], 328.4 K	0.011	–	–	–	–
[1], 333.15 K	–	859.8	–	–	–
[1], 333.2 K	0.0137	–	–	–	75.22
[1], 337.66 K	–	–	–	0.1527	–
[1], 338.2 K	–	–	–	–	62.47
[1], 338.6 K	0.017	–	–	–	–
[1], 343 K	0.0198	–	–	–	–
[1], 343.15 K	–	853.7	–	–	–
[1], 343.2 K	–	–	–	–	52.65
[1], 347.76 K	–	–	–	0.1507	–
[1], 348.2 K	–	–	–	–	44.4
[1], 349.5 K	0.0247	–	–	–	–
[1], 353.15 K	–	847.6	–	–	–
[1], 353.2 K	–	–	–	–	37.98
[1], 358.08 K	–	–	–	0.1497	–
[1], 358.2 K	–	–	–	–	32.78
[1], 363.15 K	–	841.6	–	–	–
[1], 363.2 K	–	–	–	–	28.12
[1], 368.2 K	–	–	–	–	24.48
[2], 293.15 K	–	–	1138.1	–	–
[2], 298.15 K	–	–	1150.7	–	–
[2], 303.15 K	–	–	1160.7	–	–
[2], 308.15 K	–	–	1170.1	–	–
[2], 313.15 K	–	–	1178.9	–	–
[2], 318.15 K	–	–	1185.8	–	–
[2], 323.15 K	–	–	1192.7	–	–
[2], 328.15 K	–	–	1199.6	–	–
[2], 333.15 K	–	–	1206.5	–	–
[2], 338.15 K	–	–	1213.4	–	–
[2], 343.15 K	–	–	1220.9	–	–
[2], 348.15 K	–	–	1228.4	–	–
[2], 353.15 K	–	–	1235.3	–	–
[2], 358.15 K	–	–	1242.2	–	–
[2], 363.15 K	–	–	1247.2	–	–

CCCCCCCCCC(=O)[O-].CCCCCCCCCCCCCC[P+](CCCCCC)(CCCCCC)CCCCCC [trihexyltetradecylphosphonium decanoate]
Conditions	electrical conductivity [S/m]	mass density [kg/m3]	molar heat capacity at constant pressure [J/K/mol]	thermal conductivity [W/m/K]	viscosity [mPa·s]
[1], 278.09 K	–	–	–	0.1601	–
[1], 288 K	–	–	–	0.1591	–
[1], 293.15 K	–	880.4	–	–	–
[1], 293.2 K	–	–	–	–	546.3
[1], 297.79 K	–	–	–	0.1571	–
[1], 298.15 K	–	877.3	–	–	–
[1], 298.2 K	–	–	–	–	409.8
[1], 298.8 K	0.00174	–	–	–	–
[1], 303.15 K	–	874.6	–	–	–
[1], 303.2 K	–	–	–	–	314.5
[1], 303.8 K	0.00239	–	–	–	–
[1], 308 K	0.00297	–	–	–	–
[1], 308.16 K	–	–	–	0.1545	–
[1], 308.2 K	–	–	–	–	242.5
[1], 313.15 K	–	868.1	–	–	–
[1], 313.2 K	–	–	–	–	189.8
[1], 313.8 K	0.00395	–	–	–	–
[1], 318.13 K	–	–	–	0.1542	–
[1], 318.2 K	–	–	–	–	151.3
[1], 319.6 K	0.00506	–	–	–	–
[1], 323.15 K	–	862	–	–	–
[1], 323.2 K	0.00631	–	–	–	121.8
[1], 326.82 K	–	–	–	0.1535	–
[1], 328.2 K	0.00763	–	–	–	99.78
[1], 333.15 K	–	855.7	–	–	–
[1], 333.2 K	–	–	–	–	82.68
[1], 333.4 K	0.00949	–	–	–	–
[1], 338.2 K	–	–	–	–	68.76
[1], 338.3 K	0.0118	–	–	–	–
[1], 338.5 K	–	–	–	0.1515	–
[1], 343.15 K	–	849.7	–	–	–
[1], 343.2 K	–	–	–	–	58.07
[1], 343.5 K	0.0137	–	–	–	–
[1], 347.3 K	–	–	–	0.1502	–
[1], 348.2 K	–	–	–	–	49.28
[1], 349.7 K	0.0171	–	–	–	–
[1], 353.15 K	–	843.3	–	–	–
[1], 353.2 K	–	–	–	–	42.21
[1], 358.2 K	–	–	–	–	36.41
[1], 358.21 K	–	–	–	0.1493	–
[1], 363.15 K	–	837.4	–	–	–
[1], 363.2 K	–	–	–	–	31.71
[1], 368.2 K	–	–	–	–	27.59
[2], 293.15 K	–	–	1181.2	–	–
[2], 298.15 K	–	–	1191.7	–	–
[2], 303.15 K	–	–	1199.5	–	–
[2], 308.15 K	–	–	1209.3	–	–
[2], 313.15 K	–	–	1217.2	–	–
[2], 318.15 K	–	–	1221.8	–	–
[2], 323.15 K	–	–	1230.3	–	–
[2], 328.15 K	–	–	1238.2	–	–
[2], 333.15 K	–	–	1246	–	–
[2], 338.15 K	–	–	1250.6	–	–
[2], 343.15 K	–	–	1264.4	–	–
[2], 348.15 K	–	–	1269.6	–	–
[2], 353.15 K	–	–	1278.8	–	–
[2], 358.15 K	–	–	1285.3	–	–
[2], 363.15 K	–	–	1296.5	–	–
